According to patent US5256668A, “Aminopyrimidine derivatives as antiviral agents for respiratory syncytial virus” (American Home Products Corporation, priority 1993, dated 1993):
≈ marks a conversion by molar mass, not a printed value. Where two headings read alike, the source gives them in different places.

Tests used:
[1] = Cellular toxicity, minimal toxic dose that inhibits all growth, A549; type: cell-based; conditions: human, a549 cells
Experimental: (§1) The cytotoxic activities for the compounds of Examples 1 and 2, amantadine and ribavirin were determined in five different cell lines.

[2] = Cellular toxicity, minimal toxic dose that inhibits all growth, HEp-2; type: cell-based; conditions: human, hep-2 cells
Experimental: as §1

[3] = system: respiratory syncytial virus RSV-9320 (subgroup B); experiment: Anti-RSV activity (RSV-9320) in HEp-2 cells; type: cell-based; conditions: for IC50: human respiratory syncytial virus; for activity against subgroup B (RSV-9320): in words
[4] = Cellular toxicity, minimal toxic dose that inhibits all growth, Vero; type: cell-based; conditions: monkey, vero cells
Experimental: as §1

[5] = system: respiratory syncytial virus RSVA2 (subgroup A); experiment: Anti-RSV activity (RSVA2) in HEp-2 cells, crystal violet staining of cytopathic effect; type: cell-based; conditions: for EC50 / IC50: human respiratory syncytial virus; for EC50: read-out: Anti-RSVA2 ED50; for activity against subgroup A (RSVA2): in words
[6] = Cellular toxicity, minimal toxic dose that inhibits all growth, MRC-5; type: cell-based; conditions: human, mrc-5 cells
Experimental: as §1

[7] = Cellular toxicity, minimal toxic dose that inhibits all growth, MDCK; type: cell-based, Canine; conditions: dog
Experimental: as §1

[8] = Cellular toxicity (TD50) in the anti-RSV test; conditions: human, hep-2 cells
FluA/WSN = experiment: Anti-flu activity against FluA/WSN in MDCK cells; type: cell-based, influenza A virus
in vitro = conditions: human, hep-2 cells
[9] = Solubility at 100 μg/ml (footnote of Table 4); type: physicochemical; conditions: footnote a of Table 4
[10] = Table 4, A549, read-out: Minimal Toxic Dose that Inhibits All Growth, A549
[11] = Table 4, HEp-2, read-out: Minimal Toxic Dose that Inhibits All Growth, HEp-2
[12] = HEp-2, read-out: Median Inhibitory Concentration (IC50), RSV-9320
[13] = Table 4, Vero, read-out: Minimal Toxic Dose that Inhibits All Growth, Vero
[14] = Table 4, MRC-5, read-out: Minimal Toxic Dose that Inhibits All Growth, MRC-5
[15] = Table 4, MDCK, read-out: Minimal Toxic Dose that Inhibits All Growth, MDCK
[16] = Table 3, HEp-2 cells, read-out: Median Inhibitory Concentration (IC50), RSV-9320
[17] = 72 h, Table 2, HEp-2 cells, compound added 2 h before infection, 3 days
[18] = Table 3, HEp-2 cells, read-out: Median Inhibitory Concentration (IC50), RSVA2

Which MCC [1, 10] does the source give for `NC12CC3CC(CC(C3)C1)C2` [Amantadine, amantadine, reference compound] here?
Its MCC is greater than 100 µg/mL.

What about the MCC [2, 11] of the same compound?
The MCC was 100 µg/mL.

What about the IC50 [3, 12] of the same compound?
The IC50 was 16 mg/L (≈ 106 µM).

And the MCC [4, 13]?
Its MCC is 100 µg/mL.

What about the EC50 ([5]; HEp-2, 72 h) of the same compound?
The EC50 was 50 mg/L (≈ 331 µM).

What about the MCC [6, 14] of the same compound?
The MCC was 100 µg/mL.

And the MCC [7, 15]?
The MCC was greater than 100 µg/mL.

And the CC50 at 72 h [8]?
The CC50 at 72 h was 100 mg/L (≈ 661 µM).

For `Cc1nc(=O)c(C#N)c(NCCc2cccnc2)[nH]1` [Compound 1], which MCC [1] is on record?
The MCC was greater than 100 µg/mL.

And the MCC [2]?
Its MCC is greater than 100 µg/mL.

And the “activity against subgroup B (RSV-9320)” value ([3]; HEp-2 cells)?
The value was “active”.

What about the IC50 [3, 16] of the same compound?
Its IC50 is no more than 0.16 mg/L.

What about the MCC [4] of the same compound?
The MCC was greater than 100 µg/mL.

And the “activity against subgroup A (RSVA2)” value ([5]; HEp-2 cells)?
Its value is “active”.

And the EC50 [5, 17]?
Its EC50 is 0.05 mg/L (≈ 0.196 µM).

And the IC50 [5, 18]?
Its IC50 is no more than 0.16 mg/L.

And the MCC [6]?
The MCC was 100 µg/mL.

And the “anti-flu activity against FluA/WSN” value (FluA/WSN)?
Its value is “inactive”.

What about the MCC ([7]; mdck) of the same compound?
The MCC was greater than 100 µg/mL.

What about the CC50 at 72 h (in vitro) of the same compound?
Its CC50 at 72 h is greater than 16 mg/L.

Which MCC [1] does the source give for `Cc1nc(=O)c(Br)c(NCc2cncc(C#N)c2)[nH]1` [Compound 2] here?
Its MCC is greater than 50 µg/mL.

And the MCC [2]?
Its MCC is 50 µg/mL.

What about the “activity against subgroup B (RSV-9320)” value ([3]; HEp-2 cells) of the same compound?
Its value is “active”.

And the IC50 [3, 16]?
The IC50 was no more than 0.16 mg/L.

What about the MCC [4] of the same compound?
Its MCC is greater than 50 µg/mL.

What about the “activity against subgroup A (RSVA2)” value ([5]; HEp-2 cells) of the same compound?
The value was “active”.

What about the EC50 [5, 17] of the same compound?
The EC50 was 0.05 mg/L (≈ 0.156 µM).

What about the IC50 [5, 18] of the same compound?
Its IC50 is no more than 0.16 mg/L.

What about the “solubility at 100 μg/ml” value [9] of the same compound?
The value was “Not completely soluble”.

What about the MCC [6] of the same compound?
Its MCC is greater than 50 µg/mL.

And the “anti-flu activity against FluA/WSN” value (FluA/WSN)?
The value was “inactive”.

And the MCC ([7]; mdck)?
Its MCC is greater than 50 µg/mL.

And the CC50 at 72 h (in vitro)?
Its CC50 at 72 h is greater than 16 mg/L.

Which EC50 [5, 17] does the source give for `CC(C)(C)c1nc(O)c(C#N)c(NCc2cccnc2)n1` [Compound 3] here?
The EC50 was 1.6 to 5 mg/L (≈ 5.65 to 17.6 µM).

What about the CC50 at 72 h (in vitro) of the same compound?
The CC50 at 72 h was greater than 16 mg/L.

Which results are given for `Cc1nc(O)c(C#N)c(NCCc2ccncc2)n1` [Compound 4]?
EC50 [5, 17]: 0.16 mg/L (≈ 0.627 µM); CC50 at 72 h (in vitro): > 16 mg/L

Which EC50 [5, 17] does the source give for `Cc1nc(=O)c(C#N)c(NCc2ccccc2)[nH]1` [Compound 5] here?
The EC50 was 1.6 mg/L (≈ 6.66 µM).

What about the CC50 at 72 h (in vitro) of the same compound?
The CC50 at 72 h was greater than 16 mg/L.

For `Cc1nc(=O)c(C#N)c(NCCN(C)C)[nH]1` [Compound 6], which EC50 [5, 17] is on record?
Its EC50 is 5 mg/L (≈ 22.6 µM).

What about the CC50 at 72 h (in vitro) of the same compound?
Its CC50 at 72 h is greater than 16 mg/L.

What does the source list for `Cc1nc(=O)c(C#N)c(NCCN2CCCC2)[nH]1` [Compound 7]?
EC50 [5, 17]: 1.6 mg/L (≈ 6.47 µM); CC50 at 72 h (in vitro): 16 mg/L (≈ 64.7 µM)

For `Cc1nc(=O)c(Br)c(NCCc2cccnc2)[nH]1` [Compound 8], which EC50 [5, 17] is on record?
The EC50 was 0.005 mg/L (≈ 0.0162 µM).

And the CC50 at 72 h (in vitro)?
The CC50 at 72 h was greater than 16 mg/L.

With `CCCN(CCC)CCNc1[nH]c(C)nc(=O)c1Br` [Compound 9] as the compound, how does the EC50 [5, 17] read?
The EC50 was 1.6 mg/L (≈ 4.83 µM).

What about the CC50 at 72 h (in vitro) of the same compound?
The CC50 at 72 h was greater than 16 mg/L.

With `Cc1nc(=O)c(Br)c(NCc2ccc3c(c2)OCO3)[nH]1` [Compound 10] as the compound, how does the EC50 [5, 17] read?
Its EC50 is 0.05 mg/L (≈ 0.148 µM).

What about the CC50 at 72 h (in vitro) of the same compound?
The CC50 at 72 h was greater than 16 mg/L.

Which results are given for `Cc1nc(=O)c(Br)c(NCc2ccsc2)[nH]1` [Compound 11]?
EC50 [5, 17]: 0.5 mg/L (≈ 1.67 µM); CC50 at 72 h (in vitro): > 16 mg/L

For `C=CCOc1ccc(CCNc2[nH]c(C)nc(=O)c2Br)cc1OC` [Compound 12], which EC50 [5, 17] is on record?
The EC50 was 0.5 mg/L (≈ 1.27 µM).

What about the CC50 at 72 h (in vitro) of the same compound?
The CC50 at 72 h was greater than 16 mg/L.

Which results are given for `Cc1nc(=O)c(Cl)c(NCc2cncc(Br)c2)[nH]1` [Compound 13]?
EC50 [5, 17]: 0.016 mg/L (≈ 0.0485 µM); CC50 at 72 h (in vitro): > 16 mg/L

Which EC50 [5, 17] does the source give for `COc1ccc(Br)cc1CCNc1[nH]c(C)nc(=O)c1Br` [Compound 14] here?
Its EC50 is 0.5 mg/L (≈ 1.2 µM).

And the CC50 at 72 h (in vitro)?
The CC50 at 72 h was greater than 16 mg/L.

Which results are given for `Cc1nc(=O)c(F)c(NCc2cccnc2)[nH]1` [Compound 15]?
EC50 [5, 17]: 0.05 mg/L (≈ 0.213 µM); CC50 at 72 h (in vitro): > 16 mg/L

Which EC50 [5, 17] does the source give for `Cc1nc(=O)c(Br)c(NCCN(C)C)[nH]1` [Compound 16] here?
The EC50 was 0.16 mg/L (≈ 0.582 µM).

What about the CC50 at 72 h (in vitro) of the same compound?
Its CC50 at 72 h is greater than 16 mg/L.

For `Cc1nc(NCc2cncc(Br)c2)c(Br)c(=O)[nH]1` [Compound 17], which EC50 [5, 17] is on record?
The EC50 was 0.016 mg/L (≈ 0.0428 µM).

And the CC50 at 72 h (in vitro)?
Its CC50 at 72 h is greater than 16 mg/L.

For `NC(=O)c1ncn([C@@H]2O[C@H](CO)[C@@H](O)[C@H]2O)n1` [Ribavirin, ribavirin, reference compound], which MCC [1, 10] is on record?
Its MCC is 100 µg/mL.

What about the MCC [2, 11] of the same compound?
Its MCC is 50 µg/mL.

And the IC50 [3, 12]?
Its IC50 is 5 mg/L (≈ 20.5 µM).

And the MCC [4, 13]?
Its MCC is 100 µg/mL.

And the EC50 ([5]; HEp-2, 72 h)?
Its EC50 is 1.6 to 5 mg/L (≈ 6.55 to 20.5 µM).

What about the IC50 ([5]; HEp-2, read-out: Median Inhibitory Concentration (IC50), RSVA2) of the same compound?
Its IC50 is 1.6 to 5 mg/L (≈ 6.55 to 20.5 µM).

And the MCC [6, 14]?
Its MCC is 100 µg/mL.

And the MCC [7, 15]?
The MCC was 100 µg/mL.

And the CC50 at 72 h [8]?
Its CC50 at 72 h is 50 mg/L (≈ 205 µM).
